Experimental findings from ChEMBL document CHEMBL6074712, “Optimization of Potent and Selective Cyclohexyl Acid ERAP1 Inhibitors Using Structure- and Property-Based Drug Design” (ACS Med Chem Lett, 2024) are described below.

Each structure is given as a SMILES string.

The series is described as follows: physchem. The settings on record: buffer.
Description: Aqueous solubility of compound
Broadly, the kinetic solubility is the concentration staying in solution when a stock, usually in DMSO, is diluted into the medium. Consider `O=C(CN1C(=O)COc2ccc(C(F)(F)F)cc21)NC1(C(=O)O)CCCCC1`, for which the solubility (kinetic) is at least 172 µg/mL. As for `O=C(CN1C(=O)COc2ccc(Cl)cc21)NC1(C(=O)O)CCCCC1`, the figure is at least 112 µg/mL; as for `O=C(Cn1c(=O)oc2ccc(-c3ccccc3)cc21)NC1(C(=O)O)CCCCC1`, at least 157 µg/mL.
